Series [1] can be described thus: VAS ratings of 'Any drug effect' in the Phase I/IIa study. Format: in vivo, human. From the text:
The visual analogue scale (VAS) is a psychometric response scale that can be used in questionnaires. It is a measurement instrument for subjective characteristics or attitudes that cannot be directly measured. When responding to a VAS item, respondents specify their level of agreement to a statement by indicating a position along a continuous line between two end points, usually a horizontal 100-mm line marked from “not at all,” “definitely not,” or the like, on the left to “extremely,” “definitely so,” or the like, on the right. The Bond and Lader VAS involves the subject indicating (with vertical marks) on sixteen horizontal 100-mm visual analogue scales how he/she feels. From these measurements, three main factors are calculated as described by Bond and Lader: alertness (from nine scores), contentedness (often called mood; from five scores), and calmness (from two scores). The Bowdle VAS and Drug Rating VAS provides the subject with items of the drug rating questionnaire: feel drug, like drug, and dislike drug. The VAS any drug effect involves the subject indicating (with vertical marks) on horizontal 100-mm visual analogue scales with the any drug effects item (“I can feel any drug effect”). In some embodiments, the subject has a maximum VAS score (e.g., Bond and Lader VAS, Bowdle VAS and Drug Rating VAS, and/or VAS any drug effect) of ≥60 mm after treatment. In some embodiments, the subject has a VAS score (e.g., Bond and Lader VAS, Bowdle VAS and Drug Rating VAS, and/or VAS any drug effect) of greater than or equal to 60 mm, 65 mm, 70 mm, 75 mm, 80 mm, 85 mm, 90 mm, or 95 mm, after treatment. In some embodiments, at least 50%, at least 55%, at least 60%, at least 65%, at least 70%, at least 75%, at least 80%, at least 85%, at least 90% of subjects treated with the methods described herein report a maximum VAS score (e.g., Bond and Lader VAS, Bowdle VAS and Drug Rating VAS, and/or VAS any drug effect) of greater than or equal to 60 mm, 65 mm, 70 mm, 75 mm, 80 mm, 85 mm, 90 mm, or 95 mm following treatment. In some embodiments, the subject has a maximum VAS any drug effect score of ≥60 mm after treatment. In some embodiments, the subject has a VAS any drug effect score of greater than or equal to 60 mm, 65 mm, 70 mm, 75 mm, 80 mm, 85 mm, 90 mm, or 95 mm, after treatment. In some embodiments, at least 50%, at least 55%, at least 60%, at least 65%, at least 70%, at least 75%, at least 80% of subjects treated with the methods described herein report a maximum VAS any drug effect score of greater than or equal to 60 mm, 65 mm, 70 mm, 75 mm, 80 mm, 85 mm, 90 mm, or 95 mm following treatment.
A visual analogue scale will be completed by all participants on each day of dosing (Day 1 and Day 8 or Day 22) and will consist of a 100 mm bipolar line with the far left side of the line marked not at all, and the far right side of the line marked extremely. Participants will be asked “Right now, do you feel any drug effects at all?” and participants in response will make a vertical mark on the line on study dosing days predose and at 0.5, 1, 2, 4, 6, 8 and 12 hours postdose.

Assay in series [2]: not given
This is another data set of the same source.

Setting [3] is: oral, equivalent doses, male Beagle dogs.

The structures appear in SMILES notation. “And” between values parts separate entries of the source, which are not always exact repeats. Identical values can stand only once. Like-named read-outs stand apart in the source and are kept apart here.

Broadly, the bioavailability is dose-corrected exposure relative to a reference, in per cent. A high value points to much systemic uptake. Turning to `[2H]C([2H])([2H])N(C([2H])([2H])[2H])C([2H])([2H])C([2H])([2H])c1c[nH]c2cccc(O)c12` [psilocin-d10, 3-(2-(bis(methyl-d3)amino)ethyl-1,1,2,2-d4)-1H-indol-4-ol], the “difference in systemic exposure versus psilocin” value (dogs) is given as ~30% and the “difference in systemic exposure versus psilocin” value in series [2] (rats) is ~30%. Besides, the “higher concentration (Cmax) compared to psilocin after psilocybin” value under setting [3] amounted to 31%. Further, the “higher exposure (AUC) compared to psilocin after psilocybin” value under setting [3] worked out at 38%. In addition, the oral availability (oral, female dogs) is on record as 91.3%. The “subjects reporting maximum VAS-Any drug effect readings above 60 mm” value in series [1] (8 mg oral, Cohort 2, 4 healthy volunteers) is on record as 75%; in series [1] (10 mg oral, Cohort 3, 3 healthy volunteers), 66%; in series [1] (16 mg, Cohort 6 MDD), 79.2%. In addition, the “Observed Mean Maximum VAS - Any drug effect” value in series [1] (8 mg oral, Cohort 2 Day 8, NHV, N = 4) was 77.2; in series [1] (10 mg oral, Cohort 3 Day 8, NHV, N = 3), 78.3; in series [1] (12 mg oral, Cohorts 4 and 5 MDD, Day 1 or Day 22, blinded data incl. placebo subjects) it was 80.7 and 80.7^3; in series [1] (16 mg oral, Cohort 6 MDD, Day 1 or Day 22, blinded data incl. placebo subjects, excluding vomited doses) it was 89.2 and 89.2^2,3. For the same compound, the “individual VAS-Any drug effect scores of subjects with meaningful scores” value in series [1] (8 mg, Cohort 2) is 100 mm and 97 mm and 89 mm; in series [1] (10 mg, Cohort 3) it was 100 mm. Further, the “median maximum VAS-Any drug effect score” value worked out at 100 mm in series [1] (12 mg, Cohorts 4 and 5 MDD); 100 mm in series [1] (16 mg, Cohort 6 MDD). The bioavailability in series [2] (Sprague Dawley, rat, in vivo, po) is ~60%. The “reduction in oral concentration (Cmax) in comparison to psilocin after psilocybin” value in series [2] (oral, Sprague Dawley rats, molar dose-normalised) turned out to be 16%.

The values above are taken from patent publication US20240293367A1, “METHODS OF TREATING DISORDERS WITH A […]” (Cybin IRL Limited, priority 2023, published 2024).
